In US10104891B2 (priority 2014, dated 2018):

Assays:
Type in all cases: in vivo
Phytophthora infestans = experiment: whole plant or invertebrate; conditions: for pest or weed control at 4 µg/mL: Phytophthora infestans, in Solanum lycopersicum, 96 h, read-out: control value (Test 1); for control value (Test 1): tomato late blight, control value vs untreated section
[1] = tested on: Pseudoperonospora cubensis; experiment: Test 2: control effect against cucumber downy mildew; conditions: control value vs untreated section; for pest or weed control at 4 µg/mL: Pseudoperonospora cubensis, 120 h
Method in brief: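 Cucumber (Sagami hanjiro) at 2-leaf stage sprayed with 4 ppm compound from 10% wettable powder in Tween20 (1/5000); inoculated next day with P. cubensis zoospores, 1.0×10^4 units/ml, 16 hr moist chamber at 22° C. Lesion area rate scored 5 days post-inoculation; control value = (1 − treated/untreated onset area rate)×100.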

Plasmopara viticola = experiment: Test 3: control effect against grape downy mildew; conditions: control value vs untreated section; for pest or weed control at 4 µg/mL: Plasmopara viticola, 120 h
Method in brief: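 Neomuscat grape seedlings were sprayed with compound at 4 ppm, diluted from a 10% wettable powder in Tween20 solution. One day later they were inoculated with Plasmopara viticola zoospores at 1.0×10^4 units/ml and held moist at 22° C. for 16 hr. Control value was derived from leaf lesion area at 5 days versus untreated leaves.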

Row | SMILES | pest or weed control at 4 µg/mL (Phytophthora infestans) [%] | pest or weed control at 4 µg/mL [1] [%] | pest or weed control at 4 µg/mL (Plasmopara viticola) [%] | control value (Test 1) (Phytophthora infestans) | control value (Test 2) [1] | control value (Test 3) (Plasmopara viticola)
1 | COc1ccc(OS(C)(=O)=O)c2c1COC(c1csc(C3CCN(C(=O)Cn4nc(Cl)cc4Cl)CC3)n1)OC2 (stereo not drawn) [Compound 1-109, 4-[4-(6-methoxy-9-methylsulfonyloxy-1,5-dihydro-3H-2,4-benzodioxepin-3-yl)-2-thiazolyl]-1-[2-(3,5-dichloro-1H-pyrazole-1-yl)acetyl]piperidine] | 100 | 100 | 100 |  |  | 
2 | Cc1ccc(C)c(CC(=O)N2CCC(c3nc(C4OCc5c(OS(C)(=O)=O)ccc(OS(C)(=O)=O)c5CO4)cs3)CC2)c1 [Compound 2-53] |  |  |  | 100 | 100 | 100
3 | O=C(Cc1cc(Cl)ccc1Cl)N1CCC(c2nc(C3OCc4ccc([N+](=O)[O-])cc4CO3)cs2)CC1 (stereo not drawn) [Compound 2-21] |  |  |  | 50 | 100 | 100
4 | N#Cc1cccc2c1COC(c1csc(C3CCN(C(=O)Cn4nc(C(F)(F)F)cc4C(F)(F)F)CC3)n1)OC2 (stereo not drawn) [Compound 1-150] |  |  |  | 100 | 100 | 100
5 | Cc1ccc(C)c(CC(=O)N2CCC(c3nc(C4OCc5c(I)ccc(OS(C)(=O)=O)c5CO4)cs3)CC2)c1 (stereo not drawn) [Compound 2-40] |  |  |  | 70 | 100 | 100
6 | COc1ccc(Cl)c2c1COC(c1csc(C3CCN(C(=O)Cn4nc(C(F)(F)F)cc4C(F)(F)F)CC3)n1)OC2 (stereo not drawn) [Compound 1-110] |  |  |  | 100 | 100 | 100
7 | COc1ccc(OC(F)(F)F)c2c1COC(c1csc(C3CCN(C(=O)Cn4nc(C(F)(F)F)cc4C)CC3)n1)OC2 (stereo not drawn) [Compound 1-86] |  |  |  | 100 | 100 | 100
8 | CS(=O)(=O)Oc1ccc(I)c2c1COC(c1csc(C3CCN(C(=O)Cc4cc(Cl)ccc4Cl)CC3)n1)OC2 (stereo not drawn) [Compound 2-44, 4-[4-(6-iodo-9-methylsulfonyloxy-1,5-dihydro-3H-2,4-benzodioxepin-3-yl)-2-thiazolyl]-1-[2-(2,5-dichlorophenyl)acetyl]piperidine] | 90 | 100 | 100 |  |  | 
9 | COc1ccc(Br)c2c1COC(c1csc(C3CCN(C(=O)Cc4cc(Cl)ccc4Cl)CC3)n1)OC2 (stereo not drawn) [Compound 2-25] |  |  |  | 40 | 100 | 100
10 | CS(=O)(=O)Oc1c(F)ccc2c1COC(c1csc(C3CCN(C(=O)Cn4nc(C(F)(F)F)cc4C(F)(F)F)CC3)n1)OC2 (stereo not drawn) [Compound 1-131, 4-[4-(7-fluoro-6-methylsulfonyloxy-1,5-dihydro-3H-2,4-benzodioxepin-3-yl)-2-thiazolyl]-1-[2-[3,5-bis(trifluoromethyl)-1H-pyrazole-1-yl]acetyl]piperidine] | 100 | 100 | 100 |  |  | 
11 | COc1ccc(OS(C)(=O)=O)c2c1COC(c1csc(C3CCN(C(=O)Cn4nc(C)cc4C)CC3)n1)OC2 (stereo not drawn) [Compound 1-115, 4-[4-(6-methoxy-9-methylsulfonyloxy-1,5-dihydro-3H-2,4-benzodioxepin-3-yl)-2-thiazolyl]-1-[2-[3,5-dimethyl-1H-pyrazole-1-yl]acetyl]piperidine] | 100 | 100 | 100 |  |  | 
12 | COc1ccc(OS(C)(=O)=O)c2c1COC(c1csc(C3CCN(C(=O)Cn4nc(C(F)(F)F)cc4C)CC3)n1)OC2 (stereo not drawn) [Compound 1-26] |  |  |  | 100 | 100 | 100
13 | Cc1cc(C(F)(F)F)nn1CC(=O)N1CCC(c2nc(C3OCc4cc5c(cc4CO3)CCC5)cs2)CC1 [Compound 1-31] |  |  |  | 100 | 100 | 100
